Data reported in the kinase profiling compilation of Christmann-Franck et al. (2016).

Key:
Experiment in all cases: KINOMEscan competition binding
Details in all cases: compound 10.0 µM
CDK5 (human) = CDK5 (human) (UniProt Q00535)
MAPK4 (human) = MAPK4 (human) (UniProt P31152)
CDK8 (human) = CDK8 (human) (UniProt P49336)
CDK15 (human) = CDK15 (human) (UniProt Q96Q40)
TNK2 (human) = TNK2 (human) (UniProt Q07912)
CAMK1 (human) = CAMK1 (human) (UniProt Q14012)
PRKAA2 (human) = PRKAA2 (human) (UniProt P54646)
[1] = biological target: TYK2 JH1 catalytic (human) (UniProt P29597)
SYK (human) = SYK (human) (UniProt P43405)
EPHA3 (human) = EPHA3 (human) (UniProt P29320)
MAPK1 (human) = MAPK1 (human) (UniProt P28482)
NUAK1 (human) = NUAK1 (human) (UniProt O60285)
MYO3A (human) = MYO3A (human) (UniProt Q8NEV4)
BMPR1A (human) = BMPR1A (human) (UniProt P36894)
ERBB4 (human) = ERBB4 (human) (UniProt Q15303)
[2] = tested on: ABL1 (human), P00519 [E255K]
CSNK1A1L (human) = CSNK1A1L (human) (UniProt Q8N752)
CSF1R (human) = CSF1R (human) (UniProt P07333)
[3] = tested on: RET (human), P07949 [V804L]
RET (human) = RET (human) (UniProt P07949)
CAMK2B (human) = CAMK2B (human) (UniProt Q13554)
MAP2K6 (human) = MAP2K6 (human) (UniProt P52564)
Sequence of MAP2K6 (human) (P52564 whole entry, looked up): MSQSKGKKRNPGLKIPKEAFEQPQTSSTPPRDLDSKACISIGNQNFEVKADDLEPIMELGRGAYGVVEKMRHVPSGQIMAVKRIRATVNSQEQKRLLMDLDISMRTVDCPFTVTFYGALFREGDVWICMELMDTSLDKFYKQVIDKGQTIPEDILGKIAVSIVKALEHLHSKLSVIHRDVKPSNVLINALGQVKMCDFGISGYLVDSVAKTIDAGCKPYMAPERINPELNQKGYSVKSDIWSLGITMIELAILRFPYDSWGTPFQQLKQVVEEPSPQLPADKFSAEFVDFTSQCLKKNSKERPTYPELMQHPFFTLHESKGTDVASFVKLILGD

MAP3K4 (human) = MAP3K4 (human) (UniProt Q9Y6R4)
Sequence of MAP3K4 (human) (Q9Y6R4 whole entry, looked up): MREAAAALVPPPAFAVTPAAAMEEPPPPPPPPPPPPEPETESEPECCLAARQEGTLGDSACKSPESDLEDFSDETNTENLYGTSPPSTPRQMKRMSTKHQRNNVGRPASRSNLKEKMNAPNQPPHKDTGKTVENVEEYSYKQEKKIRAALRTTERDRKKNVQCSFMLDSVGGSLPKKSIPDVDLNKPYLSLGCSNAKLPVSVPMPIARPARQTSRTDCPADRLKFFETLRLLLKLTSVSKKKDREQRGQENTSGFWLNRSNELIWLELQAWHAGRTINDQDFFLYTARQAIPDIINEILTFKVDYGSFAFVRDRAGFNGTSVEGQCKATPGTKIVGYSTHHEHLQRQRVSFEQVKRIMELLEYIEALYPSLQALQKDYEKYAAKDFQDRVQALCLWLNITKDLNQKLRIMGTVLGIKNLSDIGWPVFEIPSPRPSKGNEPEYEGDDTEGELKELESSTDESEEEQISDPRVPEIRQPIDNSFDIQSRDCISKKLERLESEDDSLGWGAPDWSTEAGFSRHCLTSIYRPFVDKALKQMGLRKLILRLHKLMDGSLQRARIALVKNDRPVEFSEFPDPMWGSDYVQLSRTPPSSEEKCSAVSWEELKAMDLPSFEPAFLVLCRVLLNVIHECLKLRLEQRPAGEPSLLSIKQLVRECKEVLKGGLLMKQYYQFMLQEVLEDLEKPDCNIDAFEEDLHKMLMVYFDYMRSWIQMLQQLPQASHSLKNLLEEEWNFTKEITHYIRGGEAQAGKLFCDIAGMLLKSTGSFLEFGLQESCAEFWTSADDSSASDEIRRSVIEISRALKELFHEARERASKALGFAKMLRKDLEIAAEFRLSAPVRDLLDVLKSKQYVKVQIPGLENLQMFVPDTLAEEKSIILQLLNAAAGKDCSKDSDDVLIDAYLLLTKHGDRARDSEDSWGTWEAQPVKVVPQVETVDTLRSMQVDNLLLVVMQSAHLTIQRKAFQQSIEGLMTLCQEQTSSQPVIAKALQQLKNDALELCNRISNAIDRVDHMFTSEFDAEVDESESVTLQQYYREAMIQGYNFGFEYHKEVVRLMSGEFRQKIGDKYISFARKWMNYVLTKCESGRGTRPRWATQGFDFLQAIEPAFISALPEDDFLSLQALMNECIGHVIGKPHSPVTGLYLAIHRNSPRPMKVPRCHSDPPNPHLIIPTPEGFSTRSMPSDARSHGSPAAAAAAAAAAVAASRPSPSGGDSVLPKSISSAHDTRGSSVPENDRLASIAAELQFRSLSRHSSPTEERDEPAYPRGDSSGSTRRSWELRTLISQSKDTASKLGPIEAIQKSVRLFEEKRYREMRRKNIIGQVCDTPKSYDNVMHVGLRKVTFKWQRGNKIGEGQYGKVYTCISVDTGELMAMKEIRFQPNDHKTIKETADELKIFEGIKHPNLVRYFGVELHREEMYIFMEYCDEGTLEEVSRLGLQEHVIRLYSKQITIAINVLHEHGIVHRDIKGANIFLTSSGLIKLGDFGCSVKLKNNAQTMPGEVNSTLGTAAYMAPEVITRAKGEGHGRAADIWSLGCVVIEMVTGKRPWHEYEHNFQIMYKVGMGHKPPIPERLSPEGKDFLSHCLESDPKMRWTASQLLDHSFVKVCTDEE

KDR (human) = KDR (human) (UniProt P35968)
TGFBR1 (human) = TGFBR1 (human) (UniProt P36897)
Sequence of TGFBR1 (human) (P36897 whole entry, looked up): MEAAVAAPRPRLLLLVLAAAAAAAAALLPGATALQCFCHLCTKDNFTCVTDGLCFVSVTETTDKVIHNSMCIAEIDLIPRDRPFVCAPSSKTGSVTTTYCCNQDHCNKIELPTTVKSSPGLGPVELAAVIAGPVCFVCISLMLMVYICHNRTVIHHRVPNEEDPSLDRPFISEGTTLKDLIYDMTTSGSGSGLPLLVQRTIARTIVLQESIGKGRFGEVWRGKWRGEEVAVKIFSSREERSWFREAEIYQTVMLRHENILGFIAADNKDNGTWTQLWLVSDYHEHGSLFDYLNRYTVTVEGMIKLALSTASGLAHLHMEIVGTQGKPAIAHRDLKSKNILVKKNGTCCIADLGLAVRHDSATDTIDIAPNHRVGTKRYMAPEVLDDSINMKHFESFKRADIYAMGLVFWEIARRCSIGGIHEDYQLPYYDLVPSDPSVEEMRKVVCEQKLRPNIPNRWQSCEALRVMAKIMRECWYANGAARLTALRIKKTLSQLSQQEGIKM

SIK1 (human) = SIK1 (human) (UniProt P57059)
[4] = tested on: ABL1 (human), P00519 [Q252H]
FRK (human) = FRK (human) (UniProt P42685)
MAP3K3 (human) = MAP3K3 (human) (UniProt Q99759)
[5] = tested on: EGFR (human), P00533 [P753S; 747-752 del]
MAPK7 (human) = MAPK7 (human) (UniProt Q13164)
Sequence of MAPK7 (human) (Q13164 whole entry, looked up): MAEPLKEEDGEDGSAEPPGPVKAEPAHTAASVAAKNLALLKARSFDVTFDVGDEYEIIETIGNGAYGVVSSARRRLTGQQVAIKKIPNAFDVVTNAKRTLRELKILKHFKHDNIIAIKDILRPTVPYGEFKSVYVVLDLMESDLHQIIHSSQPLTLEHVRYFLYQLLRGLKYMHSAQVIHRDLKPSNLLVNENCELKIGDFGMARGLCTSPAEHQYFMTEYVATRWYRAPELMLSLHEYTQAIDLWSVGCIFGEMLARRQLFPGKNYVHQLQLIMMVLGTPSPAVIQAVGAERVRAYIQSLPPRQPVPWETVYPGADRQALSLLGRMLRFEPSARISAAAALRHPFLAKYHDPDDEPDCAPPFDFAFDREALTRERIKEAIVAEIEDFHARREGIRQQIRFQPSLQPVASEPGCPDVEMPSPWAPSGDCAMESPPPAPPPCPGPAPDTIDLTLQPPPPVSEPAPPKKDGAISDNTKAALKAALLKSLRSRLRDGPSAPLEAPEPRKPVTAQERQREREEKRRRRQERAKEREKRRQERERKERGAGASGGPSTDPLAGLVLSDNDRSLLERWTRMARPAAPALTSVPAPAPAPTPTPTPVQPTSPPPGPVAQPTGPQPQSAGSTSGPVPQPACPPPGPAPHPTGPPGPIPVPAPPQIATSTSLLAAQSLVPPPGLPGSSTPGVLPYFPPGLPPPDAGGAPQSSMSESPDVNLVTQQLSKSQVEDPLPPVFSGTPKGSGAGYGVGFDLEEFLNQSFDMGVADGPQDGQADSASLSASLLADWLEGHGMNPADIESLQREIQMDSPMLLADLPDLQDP

FLT1 (human) = FLT1 (human) (UniProt P17948)
SRC (human) = SRC (human) (UniProt P12931)
MAPK6 (human) = MAPK6 (human) (UniProt Q16659)
[6] = tested on: ABL1 (human), P00519 [T315I]
LATS1 (human) = LATS1 (human) (UniProt O95835)
MAPK3 (human) = MAPK3 (human) (UniProt P27361)
Sequence of MAPK3 (human) (P27361 whole entry, looked up): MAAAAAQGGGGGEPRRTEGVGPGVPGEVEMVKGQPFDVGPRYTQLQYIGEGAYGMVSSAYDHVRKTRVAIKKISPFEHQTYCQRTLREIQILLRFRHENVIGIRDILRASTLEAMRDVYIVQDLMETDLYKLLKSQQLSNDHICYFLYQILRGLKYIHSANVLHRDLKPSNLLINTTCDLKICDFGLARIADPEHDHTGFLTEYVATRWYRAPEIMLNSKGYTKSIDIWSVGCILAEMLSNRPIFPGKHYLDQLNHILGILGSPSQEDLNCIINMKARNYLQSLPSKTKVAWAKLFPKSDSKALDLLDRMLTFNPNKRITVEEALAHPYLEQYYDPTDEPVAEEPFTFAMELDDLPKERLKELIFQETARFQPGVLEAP

STK36 (human) = STK36 (human) (UniProt Q9NRP7)
BTK (human) = BTK (human) (UniProt Q06187)
Sequence of BTK (human) (Q06187 whole entry, looked up): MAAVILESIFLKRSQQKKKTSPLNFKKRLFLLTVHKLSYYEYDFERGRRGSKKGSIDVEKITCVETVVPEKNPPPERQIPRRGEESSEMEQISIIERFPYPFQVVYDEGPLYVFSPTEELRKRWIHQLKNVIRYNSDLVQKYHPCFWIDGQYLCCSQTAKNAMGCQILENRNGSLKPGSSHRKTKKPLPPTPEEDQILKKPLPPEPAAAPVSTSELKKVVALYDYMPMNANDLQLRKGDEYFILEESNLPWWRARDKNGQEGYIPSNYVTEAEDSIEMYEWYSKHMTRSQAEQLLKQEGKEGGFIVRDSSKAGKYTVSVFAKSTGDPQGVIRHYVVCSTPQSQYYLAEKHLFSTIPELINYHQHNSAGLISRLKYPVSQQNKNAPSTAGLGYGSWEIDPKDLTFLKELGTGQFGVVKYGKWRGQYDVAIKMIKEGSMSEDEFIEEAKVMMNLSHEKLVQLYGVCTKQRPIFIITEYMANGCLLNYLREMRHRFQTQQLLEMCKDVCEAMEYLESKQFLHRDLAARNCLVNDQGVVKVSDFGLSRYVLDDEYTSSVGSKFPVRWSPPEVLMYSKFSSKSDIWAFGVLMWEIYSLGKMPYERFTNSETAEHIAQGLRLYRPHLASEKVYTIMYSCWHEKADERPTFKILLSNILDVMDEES

MAPK10 (human) = MAPK10 (human) (UniProt P53779)
ERBB2 (human) = ERBB2 (human) (UniProt P04626)
IGF1R (human) = IGF1R (human) (UniProt P08069)

Sequence of CDK15 (human) (Q96Q40 whole entry, looked up): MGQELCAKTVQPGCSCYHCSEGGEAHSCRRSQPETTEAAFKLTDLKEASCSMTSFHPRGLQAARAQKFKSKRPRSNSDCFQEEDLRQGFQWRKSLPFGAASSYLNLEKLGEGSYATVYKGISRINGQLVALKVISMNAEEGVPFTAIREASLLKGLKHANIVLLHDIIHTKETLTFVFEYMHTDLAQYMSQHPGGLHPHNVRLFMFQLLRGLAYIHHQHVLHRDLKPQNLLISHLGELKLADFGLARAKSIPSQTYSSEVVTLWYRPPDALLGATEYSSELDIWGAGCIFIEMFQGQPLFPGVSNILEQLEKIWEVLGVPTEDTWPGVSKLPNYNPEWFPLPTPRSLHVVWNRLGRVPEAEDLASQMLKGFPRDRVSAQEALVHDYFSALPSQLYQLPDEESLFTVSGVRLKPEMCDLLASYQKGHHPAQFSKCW
Sequence of CDK5 (human) (Q00535 whole entry, looked up): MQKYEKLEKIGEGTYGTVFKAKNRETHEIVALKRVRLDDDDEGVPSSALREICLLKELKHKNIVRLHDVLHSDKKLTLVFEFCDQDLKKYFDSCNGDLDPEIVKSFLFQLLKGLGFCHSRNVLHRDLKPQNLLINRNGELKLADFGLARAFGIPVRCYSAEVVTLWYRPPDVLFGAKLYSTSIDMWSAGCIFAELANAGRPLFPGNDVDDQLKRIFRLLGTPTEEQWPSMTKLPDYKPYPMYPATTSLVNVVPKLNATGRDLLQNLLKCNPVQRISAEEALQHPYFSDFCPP

Compound `CN1C(=O)c2ccccc2N(C)c2nc(NS(=O)(=O)c3ccc(N)cc3)ncc21` has a kinase still bound, per cent of control (CDK5 (human)) of 100%, a kinase still bound, per cent of control (MAPK4 (human)) of 88% and a kinase still bound, per cent of control (CDK8 (human)) of 100%. It also gave a kinase still bound, per cent of control (CDK15 (human)) of 100%, a kinase still bound, per cent of control (TNK2 (human)) of 100% and a kinase still bound, per cent of control (CAMK1 (human)) of 100%. For the same compound, the kinase still bound, per cent of control (PRKAA2 (human)) was 96%, the kinase still bound, per cent of control [1] was 38% and the kinase still bound, per cent of control (SYK (human)) was 100%. The kinase still bound, per cent of control (EPHA3 (human)) was 97%, the kinase still bound, per cent of control (MAPK1 (human)) was 100% and the kinase still bound, per cent of control (NUAK1 (human)) was 86%. The kinase still bound, per cent of control (MYO3A (human)) was 100%, the kinase still bound, per cent of control (BMPR1A (human)) was 90% and the kinase still bound, per cent of control (ERBB4 (human)) was 100%. For the same compound, the kinase still bound, per cent of control [2] was 100%, the kinase still bound, per cent of control (CSNK1A1L (human)) was 100% and the kinase still bound, per cent of control (CSF1R (human)) was 89%. It also gave a kinase still bound, per cent of control [3] of 100%, a kinase still bound, per cent of control (RET (human)) of 100% and a kinase still bound, per cent of control (CAMK2B (human)) of 100%. For the same compound, the kinase still bound, per cent of control (MAP2K6 (human)) was 100%, the kinase still bound, per cent of control (MAP3K4 (human)) was 85% and the kinase still bound, per cent of control (KDR (human)) was 88%. The kinase still bound, per cent of control (TGFBR1 (human)) was 100%, the kinase still bound, per cent of control (SIK1 (human)) was 100% and the kinase still bound, per cent of control [4] was 82%. The kinase still bound, per cent of control (FRK (human)) was 100%, the kinase still bound, per cent of control (MAP3K3 (human)) was 100% and the kinase still bound, per cent of control [5] was 100%. It also gave a kinase still bound, per cent of control (MAPK7 (human)) of 100%, a kinase still bound, per cent of control (FLT1 (human)) of 100% and a kinase still bound, per cent of control (SRC (human)) of 100%. It also gave a kinase still bound, per cent of control (MAPK6 (human)) of 78%, a kinase still bound, per cent of control [6] of 97% and a kinase still bound, per cent of control (LATS1 (human)) of 74%. It also gave a kinase still bound, per cent of control (MAPK3 (human)) of 100%, a kinase still bound, per cent of control (STK36 (human)) of 100% and a kinase still bound, per cent of control (BTK (human)) of 100%. The kinase still bound, per cent of control (MAPK10 (human)) was 100%, the kinase still bound, per cent of control (ERBB2 (human)) was 100% and the kinase still bound, per cent of control (IGF1R (human)) was 100%.

Work on `CN1C(=O)c2ccccc2N(C)c2nc(Nc3ccc(N4CCC(O)CC4)cc3)ncc21` yielded a kinase still bound, per cent of control (CDK5 (human)) of 100%, a kinase still bound, per cent of control (MAPK4 (human)) of 100% and a kinase still bound, per cent of control (CDK8 (human)) of 100%. It also gave a kinase still bound, per cent of control (CDK15 (human)) of 100%, a kinase still bound, per cent of control (TNK2 (human)) of 29% and a kinase still bound, per cent of control (CAMK1 (human)) of 100%. It also gave a kinase still bound, per cent of control (PRKAA2 (human)) of 31%, a kinase still bound, per cent of control [1] of 1.9% and a kinase still bound, per cent of control (SYK (human)) of 61%. It also gave a kinase still bound, per cent of control (EPHA3 (human)) of 83%, a kinase still bound, per cent of control (MAPK1 (human)) of 100% and a kinase still bound, per cent of control (NUAK1 (human)) of 17%. For the same compound, the kinase still bound, per cent of control (MYO3A (human)) was 85%, the kinase still bound, per cent of control (BMPR1A (human)) was 61% and the kinase still bound, per cent of control (ERBB4 (human)) was 100%. It also gave a kinase still bound, per cent of control [2] of 0.6%, a kinase still bound, per cent of control (CSNK1A1L (human)) of 98% and a kinase still bound, per cent of control (CSF1R (human)) of 5.8%. For the same compound, the kinase still bound, per cent of control [3] was 1.7%, the kinase still bound, per cent of control (RET (human)) was 15% and the kinase still bound, per cent of control (CAMK2B (human)) was 100%. The kinase still bound, per cent of control (MAP2K6 (human)) was 100%, the kinase still bound, per cent of control (MAP3K4 (human)) was 100% and the kinase still bound, per cent of control (KDR (human)) was 97%. It also gave a kinase still bound, per cent of control (TGFBR1 (human)) of 73%, a kinase still bound, per cent of control (SIK1 (human)) of 79% and a kinase still bound, per cent of control [4] of 2.1%. It also gave a kinase still bound, per cent of control (FRK (human)) of 70%, a kinase still bound, per cent of control (MAP3K3 (human)) of 0.35% and a kinase still bound, per cent of control [5] of 100%. It also gave a kinase still bound, per cent of control (MAPK7 (human)) of 0.25%, a kinase still bound, per cent of control (FLT1 (human)) of 94% and a kinase still bound, per cent of control (SRC (human)) of 21%. For the same compound, the kinase still bound, per cent of control (MAPK6 (human)) was 97%, the kinase still bound, per cent of control [6] was 3.6% and the kinase still bound, per cent of control (LATS1 (human)) was 92%. For the same compound, the kinase still bound, per cent of control (MAPK3 (human)) was 100%, the kinase still bound, per cent of control (STK36 (human)) was 100% and the kinase still bound, per cent of control (BTK (human)) was 100%. It also gave a kinase still bound, per cent of control (MAPK10 (human)) of 100%, a kinase still bound, per cent of control (ERBB2 (human)) of 99% and a kinase still bound, per cent of control (IGF1R (human)) of 100%.
